Measurements reported in US6979686B1, “Substituted pyrazoles as p38 kinase inhibitors” (Pharmacia Corporation, priority 2001, dated 2005).
Structures can show the parent of a compound that is named as a salt. Where two headings read alike, the source gives them in different places. Values belong to the compound of their own block, whether it stands above or below them.

Columns and labels:
[1] = tested on: TNF-a, human peripheral blood mononuclear cells; experiment: LPS stimulation of human PBMs, TNF-a by ELISA; assay type: cell-based; details: Table 5, LPS-stimulated human PBM cells, TNF cell assay
Method: Method of Isolation of Human Peripheral Blood Mononuclear Cells:
Human whole blood was collected in Vacutainer tubes containing EDTA as an anticoagulant. A blood sample (7 ml) was carefully layered over 5 ml PMN Cell Isolation Medium (Robbins Scientific) in a 15 ml round bottom centrifuge tube. The sample was centrifuged at 450-500×g for 30-35 minutes in a swing out rotor at room temperature. After centrifugation, the top band of cells were removed and washed 3 times with PBS w/o calcium or magnesium. The cells were centrifuged at 400×g for 10 minutes at room temperature. The cells were resuspended in Macrophage Serum Free Medium (Gibco BRL) at a concentration of 2 million cells/ml.
LPS Stimulation of Human PBMs:
Compounds were dissolved in DMSO initially and diluted in TCM for a final concentration of 0.1% DMSO. LPS (Calbiochem, 20 ng/ml, final concentration) was then added at a volume of 0.010 ml. Cultures were incubated overnight at 37° C. Supernatants were then removed and tested by ELISA for TNF-a and IL1-b. Viability was analyzed using MTS. After 0.1 ml supernatant was collected, 0.020 ml MTS was added to remaining 0.1 ml cells.

[2] = target: T1, human p38 kinase alpha (Homo sapiens, UniProt Q16539); experiment: p38 kinase in vitro assay, phosphorylation of biotinylated PHAS-I with 32P-ATP; assay type: biochemical; details: activated human p38 kinase alpha, PHAS-I substrate, 50 μM unlabeled ATP; read-out: p38 kinase IC50
T1 construct: GST (N, cleaved yes); made in house; host or cells: E. coli DH10B
T1 sequence (Q16539 whole entry): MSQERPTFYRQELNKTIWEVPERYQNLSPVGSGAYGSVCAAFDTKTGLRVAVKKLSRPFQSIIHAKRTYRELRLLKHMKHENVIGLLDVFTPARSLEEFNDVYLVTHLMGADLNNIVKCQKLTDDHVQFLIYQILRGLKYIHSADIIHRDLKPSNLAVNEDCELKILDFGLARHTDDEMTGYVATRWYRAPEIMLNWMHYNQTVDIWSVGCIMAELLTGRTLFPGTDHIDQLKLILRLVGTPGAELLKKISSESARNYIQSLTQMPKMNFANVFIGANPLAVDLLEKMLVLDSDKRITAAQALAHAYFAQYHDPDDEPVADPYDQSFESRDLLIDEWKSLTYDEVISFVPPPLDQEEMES

[3] = tested on: TNF-α, U937 human histiocytic lymphoma cell line; experiment: LPS stimulation of TNF production by U937 cells; assay type: cell-based; details: Table 5; LPS-stimulated U937 cells, TNF-α; read-out: U937 Cell Assay IC50
Summary of the method: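 U937 cells differentiated 24 h with 20 ng/ml PMA, rested 24-48 h, used at 2 million cells/ml. Compounds in 0.1% DMSO final; LPS (E. coli, 100 ng/ml final) stimulation for 4 h at 37° C. Released TNF-α measured by ELISA; IC50 (μM).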

[4] = target: T2, human GST-p38 kinase alpha (Homo sapiens, UniProt Q16539); experiment: p38 kinase in vitro assay, second format, phosphorylation of EGFRP with 33P-ATP; assay type: biochemical
T2 construct: made in house; host or cells: E. coli DH10B
T2 sequence (Q16539 whole entry): as above
Method: The ability of compounds to inhibit human p38 kinase alpha was evaluated using two in vitro assay methods. In the first method, activated human p38 kinase alpha phosphorylates a biotinylated substrate, PHAS-I (phosphorylated heat and acid stable protein-insulin inducible), in the presence of gamma ^32P-ATP (^32P-ATP). PHAS-I was biotinylated prior to the assay and provides a means of capturing the substrate which is phosphorylated during the assay. p38 Kinase was activated by MKK6. Compounds were tested in 10 fold serial dilutions over the range of 100 μM to 0.001 μM using 1% DMSO. Each concentration of inhibitor was tested in triplicate.
A second assay format was also employed that is based on p38 kinase alpha induced phosphorylation of EGFRP (epidermal growth factor receptor peptide, a 21 mer) in the presence of ^33P-ATP. Compounds were tested in 10 fold serial dilutions over the range of 100 μM to 0.001 μM in 10% DMSO. Each concentration of inhibitor was tested in triplicate. Compounds were evaluated in 50 μl reaction volumes in the presence of 25 mM Hepes pH 7.5, 10 mM magnesium acetate, 4% glycerol, 0.4% bovine serum albumin, 0.4 mM DTT, 50 μM unlabeled ATP, 25 μg EGFRP (200 μM), and 0.05 μCi gamma ^33P-ATP. Reactions were initiated by addition of 0.09 μg of activated, purified human GST-p38 kinase alpha. Activation was carried out using GST-MKK6 (5:1,p38:MKK6) for one hour at 30° C. in the presence of 50 μM ATP. Following incubation for 60 minutes at room temperature, the reaction was stopped by addition of 150 μl of AG 1X8 resin in 900 mM sodium formate buffer, pH 3.0 (1 volume resin to 2 volumes buffer). The mixture was mixed three times with pipetting and the resin was allowed to settle. A total of 50 μl of clarified solution head volume was transferred from the reaction wells to Microlite-2 plates. 150 μl of Microscint 40 was then added to each well of the Microlite plate, and the plate was sealed, mixed, and counted.

[5] = tested on: collagen-induced arthritis, DBA/1 male mice; experiment: Collagen-induced arthritis in mice; assay type: in vivo, mouse; details: oral gavage b.i.d., day 20 to day 56
Method: Induction and Assessment of Collagen-induced Arthritis in Mice:
Arthritis was induced in mice according to the procedure set forth in J. M. Stuart, Collagen Autoimmune Arthritis, Annual Rev. Immunol. 2:199 (1984), which is incorporated herein by reference. Specifically, arthritis was induced in 8-12 week old DBA/1 male mice by injection of 50 μg of chick type II collagen (CII) (provided by Dr. Marie Griffiths, Univ. of Utah, Salt Lake City, Utah) in complete Freund's adjuvant (Sigma) on day 0 at the base of the tail. Injection volume was 100 μl. Animals were boosted on day 21 with 50 μg of CII in incomplete Freund's adjuvant (100 μl volume). Animals were evaluated several times each week for signs of arthritis. Any animal with paw redness or swelling was counted as arthritic. Scoring of arthritic paws was conducted in accordance with the procedure set forth in Wooley et al., Genetic Control of Type II Collagen Induced Arthritis in Mice: Factors Influencing Disease Suspectibility and Evidence for Multiple MHC Associated Gene Control., Trans. Proc., 15:180 (1983). Scoring of severity was carried out using a score of 1-3 for each paw (maximal score of 12/mouse). Animals displaying any redness or swelling of digits or the paw were scored as 1. Gross swelling of the whole paw or deformity was scored as 2. Ankylosis of joints was scored as 3. Animals were evaluated for 8 weeks. 8-10 animals per group were used.
Preparation and Administration of Compounds:
The compounds tested on mice having collagen-induced arthritis were prepared as a suspension in 0.5% methylcelluose (Sigma, St. Louis, Mo.), 0.025% Tween 20 (Sigma). The compound suspensions were administered by oral gavage in a volume of 0.1 ml b.i.d. Administration began on day 20 post collagen injection and continued daily until final evaluation on day 56. Scoring of arthritic paws was conducted as set forth above.

[6] = tested on: TNF alpha, BALB/c mice injected with LPS; experiment: Mouse model of LPS-induced TNF alpha production; assay type: in vivo; details: Table 6; mouse LPS, head '8 h', dose 30, oral gavage
Method: Mouse Model of LPS-induced TNF Alpha Production:
TNF alpha was induced in 10-12 week old BALB/c female mice by tail vein injection with 100 ng lipopolysaccharide (from S. Typhosa) in 0.2 ml saline. One hour later mice were bled from the retroorbital sinus and TNF concentrations in serum from clotted blood were quantified by ELISA.
Efficacy was determined at each time point as percent inhibition of serum TNF levels relative to LPS injected mice that received vehicle only.
In vivo assessment of the ability of the compounds to inhibit LPS-stimulated TNP release in the mouse is shown in the column identified as: • “Mouse LPS Model, % TNF inhib @ dose @ predose time” wherein in the dose is milligram per kilogram (mpk) administered by oral gavage and the predose time indicates the number of hours before LPS challenge when the compound is administered.

[7] = Table 10, 10% DMSO, @ 1.0 hour, read-out: p38α Kinase Assay IC50

SMILES: O[C@H]1CC[C@H](Nc2cc(-c3c[nH]nc3-c3ccc(F)cc3)ccn2)CC1 [Example A-386, trans-4-[[4-[3-(4-fluorophenyl)-1H-pyrazol-4-yl]-2-pyridinyl]amino]cyclohexanol]
IC50 ([4]; Table 9, 10% DMSO, read-out: p38α Kinase Assay IC50): 16 nM

SMILES: Fc1ccc(-c2[nH]nc(N3CCNCC3)c2-c2ccncc2)cc1 [Example A-172, 1-[5-(4-fluorophenyl)-4-(4-pyridinyl)-1H-pyrazol-3-yl]piperazine trihydrochloride]
% Inhibition of Arthritis ([5]; 100 mpk): 49.3 @ 100 mpk %

SMILES: Fc1ccc(-c2[nH]ncc2-c2ccnc(NCCn3ccnc3)c2)cc1 [Example A-268, 4-[3-(4-fluorophenyl)-1H-pyrazol-4-yl]-N-[2-(1H-imidazol-1-yl)ethyl]-2-pyridinamine]
IC50 ([4]; Table 6, EGFRP assay procedure, read-out: p38^2 (p38α in vitro assay, EGFRP assay procedure) IC50): < 10 nM

SMILES: Fc1ccc(-c2[nH]nc(C3CC3)c2-c2ccncc2)cc1 [Example A-189, 4-[3-cyclopropyl-5-(4-fluorophenyl)-1H-pyrazol-4-yl]pyridine]
% Inhibition of Arthritis ([5]; 30 mpk): 51.6 @ 30 mpk %

SMILES: OCCn1cc(-c2ccncc2)c(-c2ccc(F)cc2)n1 [Example A-210, 3-(4-fluorophenyl)-4-(4-pyridinyl)-1H-pyrazole-1-ethanol]
% Inhibition of Arthritis ([5]; 15 mpk): 58.5 @ 15 mpk % | mLPS 8 h percent inhibition [6]: 85%

The remaining lines, values ahead:

IC50 [1]: < 100 nM | IC50 [2]: 700 nM | IC50 [3]: 29 nM
SMILES: CCCc1[nH]nc(-c2cccc(C)c2)c1-c1ccncc1 [Example A-26]

IC50 [4, 7]: 21200 nM
SMILES: O=C(C(=C1SCS1)c1ccncc1)c1ccc(I)cc1 [Example A-401]

IC50 [1]: < 100 nM | IC50 [2]: < 100 nM | IC50 [3]: 243 nM
SMILES: CCc1[nH]nc(-c2ccccc2)c1-c1ccncc1 [Example A-43]

IC50 [4, 7]: 510 nM
SMILES: COc1ccc(-c2n[nH]c(N3CCN(C)CC3)c2-c2ccncc2)cc1 [Example A-415, 1-(4-(4-methoxyphenyl)-4-(4-pyridinyl)-1H-pyrazol-3-yl]-4-methylpiperazine]

IC50 ([1]; PBMC): 200 nM
SMILES: Cc1[nH]nc(-c2ccc(Cl)cc2)c1-c1ccncc1 [Example 7, 4-(3-(4-chlorophenyl)-5-methyl-1H-pyrazol-4-yl)pyridine]

IC50 ([1]; PBMC): < 100 nM
SMILES: CCc1[nH]nc(-c2cccc(C)c2)c1-c1ccncc1 [Example 45]

IC50 [1]: 6800 nM
SMILES: Cc1[nH]nc(-c2ccsc2)c1-c1ccncc1 [Example A-49]
